Eight compounds from ChEMBL document CHEMBL1201862, “PubChem BioAssay data set” (2004) can be followed below.

Test systems include RPMI-8226; OVCAR-5; SNB-19; K562; NCI-H23; LOX IMVI; HCC 2998; KM12; EKVX; OVCAR-3; IGROV-1; HOP-62; U-251; HT-29; UACC-257; NCI-H460; OVCAR-4; CCRF-CEM; MOLT-4; HOP-92.
What all share (experiment): NCI tumour cell line growth inhibition, 48 h

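Test compounds were applied to cells in 96-well plates for 48 hours at 5 doses. The concentration for 50% growth inhibition is given as GI50.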 Activity calls are given as the source filed them. No stated cut-off is given here; in the data, active = GI50 up to about 1.1 µM and inactive = higher. A value given as a limit tells only on which side of the number the result lay.

With `O=C1C[C@@H]2[C@@H](C=CC23CCCC3)N1O`, the GI50 in the assay with RPMI-8226, in the assay with OVCAR-5, in the assay on SNB-19, with K562, in the assay on NCI-H23 and with LOX IMVI was > 100 µM (inactive) throughout. Moreover, the GI50 in the assay on HCC 2998, in the assay on KM12, in the assay on EKVX, in the assay on OVCAR-3, in the assay on IGROV-1 and in the assay on HOP-62 was > 100 µM (inactive) in each case. The GI50 in the assay on U-251, in the assay with HT-29, in the assay with UACC-257, with NCI-H460, in the assay with OVCAR-4 and in the assay with CCRF-CEM was > 100 µM (inactive) in each case. The GI50 in the assay with MOLT-4 was > 100 µM (inactive).

As to `CC1=C[C@@H]2[C@@H](CC(CO)=C[C@H]3[C@@H]4C(C)(C)[C@]4(OCC(C)C)[C@H](OCC(C)C)[C@@H](C)[C@]23O)C1=O`, the GI50 with OVCAR-5 was 2.23 µM (inactive); with SNB-19, > 6.01 µM (inactive); with HOP-92 it was 1.44 µM (inactive); in the assay on K562, 0.137 µM (active); in the assay with NCI-H23, 1.91 µM (inactive); in the assay with LOX IMVI, 1.25 µM (inactive). The GI50 was 0.574 µM (active) with HCC 2998; 2.16 µM (inactive) in the assay with KM12; 1.03 µM (active) in the assay on EKVX; 2.17 µM (inactive) in the assay on OVCAR-3; 2.01 µM (inactive) in the assay on IGROV-1; 0.206 µM (active) in the assay on HOP-62. For the same compound, the GI50 with U-251 was 1.5 µM (inactive); with HT-29, 1.21 µM (inactive); in the assay on UACC-257 it was 1.62 µM (inactive); in the assay on NCI-H460, 0.465 µM (active); with OVCAR-4, 4.28 µM (inactive); with CCRF-CEM it was 0.741 µM (active). The GI50 in the assay on MOLT-4 is 0.646 µM (active).

Regarding `O=S(=O)(N=S(c1ccccc1)c1ccccc1)c1ccccc1`, the GI50 in the assay with RPMI-8226, with OVCAR-5, in the assay with SNB-19, in the assay with HOP-92, in the assay with K562 and with NCI-H23 was > 100 µM (inactive) in each case. The GI50 in the assay on KM12, with EKVX, in the assay with OVCAR-3, in the assay on HOP-62, in the assay with U-251 and in the assay with HT-29 was > 100 µM (inactive) throughout. For the same compound, the GI50 in the assay on UACC-257, with NCI-H460, with CCRF-CEM and in the assay with MOLT-4 was > 100 µM (inactive) each time.

As to `Nc1ncnc2c1cnn2Cc1ccc(Cl)cc1`, the GI50 in the assay with SNB-19, with HOP-92, in the assay with K562, in the assay on NCI-H23, with LOX IMVI and in the assay with HCC 2998 was > 100 µM (inactive) throughout. The GI50 in the assay on KM12, in the assay with OVCAR-3, in the assay with U-251, in the assay with HT-29, in the assay with UACC-257 and in the assay on NCI-H460 was > 100 µM (inactive) in each case. Moreover, the GI50 in the assay on OVCAR-4, in the assay on CCRF-CEM and with MOLT-4 was > 100 µM (inactive) throughout.

For `N#CCCN(CCC#N)c1ccc(C(=N/c2ccc(Cl)cc2)/N=N/c2ccc(Cl)cc2)cc1`, the GI50 in the assay on RPMI-8226 was 47.2 µM (inactive); with OVCAR-5, 17.2 µM (inactive); in the assay with SNB-19 it was 24.2 µM (inactive); with HOP-92 it was 19.2 µM (inactive); in the assay with K562, 32.5 µM (inactive); with NCI-H23 it was 17.5 µM (inactive). The GI50 is 12.8 µM (inactive) in the assay on HCC 2998; 13.6 µM (inactive) in the assay on KM12; 18.7 µM (inactive) in the assay with EKVX; 16.7 µM (inactive) with OVCAR-3; 14.6 µM (inactive) with IGROV-1; 21.7 µM (inactive) in the assay with HOP-62. Besides, the GI50 is 19 µM (inactive) in the assay on U-251; 19.8 µM (inactive) with HT-29; 15 µM (inactive) with UACC-257; 13.4 µM (inactive) with NCI-H460; 17.9 µM (inactive) in the assay on OVCAR-4; 35.2 µM (inactive) in the assay on CCRF-CEM. For the same compound, in the assay on MOLT-4, the GI50 was 22.5 µM (inactive).

As for `O=C(O)c1ccccc1CN1CCCC(C(=O)O)C1` (stereo unspecified), the GI50 with RPMI-8226, in the assay on OVCAR-5, with SNB-19, with HOP-92, in the assay on K562 and in the assay with NCI-H23 was > 100 µM (inactive) each time. Also, the GI50 in the assay with LOX IMVI, in the assay with KM12, in the assay on EKVX, in the assay on OVCAR-3, with IGROV-1 and in the assay on HOP-62 was > 100 µM (inactive) in each case. Also, the GI50 in the assay on U-251, in the assay with HT-29, in the assay on UACC-257, with NCI-H460, in the assay with OVCAR-4 and in the assay on MOLT-4 was > 100 µM (inactive) throughout.

As for `N#Cc1c(N)nc(Nc2cccc3ccccc23)c(C#N)c1C#N`, the GI50 in the assay with RPMI-8226 was 2.61 µM (inactive); with OVCAR-5, > 10 µM (inactive); in the assay with SNB-19, > 10 µM (inactive); with K562, 2.58 µM (inactive); in the assay on NCI-H23, 3.61 µM (inactive); with LOX IMVI, 2.53 µM (inactive). The GI50 was 8.43 µM (inactive) in the assay with HCC 2998; 7.53 µM (inactive) in the assay with KM12; > 10 µM (inactive) with EKVX; 2.3 µM (inactive) with OVCAR-3; > 10 µM (inactive) in the assay with IGROV-1; 4.89 µM (inactive) in the assay with HOP-62. Also, the GI50 in the assay on U-251 is 4.71 µM (inactive); in the assay on HT-29, 6.11 µM (inactive); in the assay on NCI-H460 it was 2.97 µM (inactive); in the assay on OVCAR-4, > 10 µM (inactive); in the assay on CCRF-CEM, 2.32 µM (inactive); in the assay on MOLT-4, 3.03 µM (inactive).

Regarding `O=S(O)CCCCCSSSCCCCCS(=O)O`, the GI50 in the assay on OVCAR-5 was 85.5 µM (inactive); with SNB-19, > 100 µM (inactive); in the assay on K562, 14.6 µM (inactive); with NCI-H23 it was 29.8 µM (inactive); with LOX IMVI, 27.1 µM (inactive); in the assay on HCC 2998, > 100 µM (inactive). In addition, the GI50 in the assay on KM12 is > 100 µM (inactive); with EKVX, > 100 µM (inactive); with OVCAR-3, 20.2 µM (inactive); with HOP-62, > 100 µM (inactive); in the assay with U-251 it was 54.5 µM (inactive); in the assay on HT-29 it was > 100 µM (inactive). Further, the GI50 in the assay with UACC-257 was 24.5 µM (inactive); with NCI-H460, > 100 µM (inactive); with OVCAR-4 it was 52 µM (inactive); in the assay with CCRF-CEM, 6.59 µM (inactive); with MOLT-4, 4.81 µM (inactive).
